# According to ChEMBL document CHEMBL3044902, “Effect of Optically Active Ethyl 2-Phthalimidooxypropionate on the Growth of Cress, Lepidium sativum” (1999):
# How the values were obtained:
# Assay type in all cases: functional
# [1] = test system: Lepidium sativum; assay: Inhibition of root growth of Lepidium sativum at 1 ppm relative to untreated control; settings: read-out: GI
# [2] = test system: Lepidium sativum; assay: Inhibition of root growth of Lepidium sativum at 100 ppm relative to untreated control; settings: read-out: GI
# [3] = test system: Lepidium sativum; assay: Inhibition of germination of Lepidium sativum at 100 ppm relative to untreated control
# [4] = test system: Lepidium sativum; assay: Inhibition of germination of Lepidium sativum at 10 ppm relative to untreated control
# [5] = test system: Lepidium sativum; assay: Inhibition of root growth of Lepidium sativum at 0.38 microM relative to untreated control; settings: read-out: GI
# [6] = test system: Lepidium sativum; assay: Inhibition of root growth of Lepidium sativum at 1.1 microM relative to untreated control; settings: read-out: GI
# [7] = test system: Lepidium sativum; assay: Inhibition of root growth of Lepidium sativum at 3.8 microM relative to untreated control; settings: read-out: GI
SMILES,inhibition of growth at 1 ppm [1] [%],inhibition of growth at 100 ppm [2] [%],inhibition at 100 ppm [3] [%],inhibition at 10 ppm [4] [%],inhibition of growth at 0.38 µM [5] [%],inhibition of growth at 1.1 µM [6] [%],inhibition of growth at 3.8 µM [7] [%]
CCOC(=O)CON1C(=O)c2ccccc2C1=O,0,100,100,0,,,
CCOC(=O)[C@@H](C)ON1C(=O)c2ccccc2C1=O,,,,,0,5,14
CCCCCOC(=O)C(C)ON1C(=O)c2ccccc2C1=O (configuration not stated),64,,,,,,
CCOC(=O)C(C)ON1C(=O)c2ccccc2C1=O (configuration not stated),68,100,100,0,,,
CCOC(=O)[C@H](C)ON1C(=O)c2ccccc2C1=O,,,,,35,49,72
CC(ON1C(=O)c2ccccc2C1=O)C(=O)OC(C)(C)C (configuration not stated),1,,,,,,
CCC(C)OC(=O)C(C)ON1C(=O)c2ccccc2C1=O (configuration not stated),42,,,,,,
CCCOC(=O)C(C)ON1C(=O)c2ccccc2C1=O (configuration not stated),64,,,,,,
CC(C)OC(=O)C(C)ON1C(=O)c2ccccc2C1=O (configuration not stated),51,,,,,,
CCCCOC(=O)C(C)ON1C(=O)c2ccccc2C1=O (configuration not stated),59,,,,,,
CCOC(=O)C(Cc1ccccc1)ON1C(=O)c2ccccc2C1=O (configuration not stated),0,70,0,,,,
CCCC(C)ON1C(=O)c2ccccc2C1=O (configuration not stated),0,56,0,,,,
CCOC(=O)C(C)CN1C(=O)c2ccccc2C1=O (configuration not stated),0,41,0,,,,
COC(=O)C(C)ON1C(=O)c2ccccc2C1=O (configuration not stated),64,,,,,,
CCCCCCC(ON1C(=O)c2ccccc2C1=O)C(=O)OCC (configuration not stated),0,72,0,,,,
CCOC(=O)C(ON1C(=O)c2ccccc2C1=O)c1ccccc1 (configuration not stated),0,60,0,,,,
CCOC(=O)C(C)(C)ON1C(=O)c2ccccc2C1=O,0,95,60,0,,,
CCOC(=O)C(CC)ON1C(=O)c2ccccc2C1=O (configuration not stated),0,94,80,0,,,
CCOC(=O)C(C)ON1C(=O)c2ccccc2C1=O (racemic),,,,,14,33,68
